Assay results published in paper PMC5004293, “Characterization of FRM-36143 as a new γ-secretase modulator for the potential treatment of familial Alzheimer’s disease” (Alzheimer's Research & Therapy, 2016).
Entries after “also recorded” stand apart in the source; their conditions may differ.

How the values were obtained:
γ-secretase [1] = experiment: Aβ peptide ELISA in H4 cells stably expressing wild-type human APP751; format: cell-based
Description: Human neuroglioma H4 cells stably expressing wild-type human APP751 were used for this assay. Briefly, cells were plated at 15,000 cells/well in 96-well plates and left to settle for 6 h (37 °C; 5 % CO2). Cells were then washed three times with Pro293™ chemically defined medium (Lonza, Walkersville, MD, USA) followed by the addition of the compound (0.3 % final DMSO). Plates were incubated overnight, and the supernatant was removed for quantification of Aβ peptides by sandwich enzyme-linked immunosorbent assay (ELISA) (see below). Cytotoxicity was evaluated using Cell-Titer 96 W AQueous One Solution Cell Proliferation Assay (MTS Assay, Promega) according to the manufacturer’s protocol.
(§1) Aβ peptide levels were quantified by sandwich ELISA using anti-Aβ38, anti-Aβ40, anti-Aβ42, (BioLegend, Dedham, MA, USA) or anti-Aβ37 for the capture and 4G8-horseradish peroxidase (HRP; BioLegend) for detection. When measuring Aβ37 and Aβ38, 4G8-HRP was added to the sample for overnight incubation, whereas it was added after the overnight incubation for 1 h for Aβ40 and Aβ42 measurements.
(§2) For cell-based assays, freshly collected samples of cultured cell supernatant were added to the plates and incubated at 4 °C for about 24 h. Detection was performed using SureBlue 3,3’,5,5’-tetramethylbenzidine (TMB) peroxidase substrate (KPL, Inc., Gaithersburg, MD, USA) and the plates read on a SpectraMax M5e microplate reader (Molecular Devices, Inc., Sunnyvale, CA, USA). GSM-treated samples were normalized to samples treated with DMSO alone (100 %) and 5 μM GSI, DAPT (0 %; Sigma-Aldrich). EC50 values were calculated from values reported as percentage of DMSO using nonlinear regression, based on a sigmoidal dose–response (variable slope) model.

γ-secretase [2] = experiment: Aβ42 ELISA in mouse primary cortical neurons; format: cell-based; details: overnight
Description: Primary cultures were established from the neocortex of E17 CD1 mouse embryos (Charles River Laboratories, Wilmington, MA, USA). Following tissue dissection and trituration, the cultures were suspended in Neurobasal® medium (Invitrogen, Carlsbad, CA, USA) supplemented with 10 % horse serum (Sigma-Aldrich, St. Louis, MO, USA) and 520 μM L-glutamine. Cells were plated at 50,000 cells/well in 96-well poly-D-lysine-coated plates. Following incubation at 37 °C and 5 % CO2 for 4 h, the plating medium was exchanged with Neurobasal® medium supplemented with 2 % B-27® (Invitrogen), 520 μM of L-glutamine, and 1 % penicillin–streptomycin. […]
Aβ peptide levels were quantified by sandwich ELISA using anti-Aβ38, anti-Aβ40, anti-Aβ42, (BioLegend, Dedham, MA, USA) or anti-Aβ37 for the capture and 4G8-horseradish peroxidase (HRP; BioLegend) for detection. […]
as §2, with “GSM-treated samples were normalized to samples treated with DMSO alone (100 %) and 5 μM GSI, DAPT (0 %; Sigma-Aldrich).” left out

γ-secretase [3] = target: T1, γ-secretase (Homo sapiens, UniProt P49768); experiment: Aβ in media and intracellular small peptides of HEK cells expressing APPsw and WT presenilin; format: cell-based; details: HEK APPsw, 1 μM
T1 construct: expressed in transfected cells; host or cells: HEK cells stably expressing APPsw and WT PS1
Description: as §1, §2
The extractions were performed according to the methods described by Okochi et al.. Briefly, human embryonic kidney (HEK) cells stably expressing APPsw and PS1 derivatives were cultured to confluence in 10-cm dishes and the media replaced on the day of the experiment. […] Conditioned media were collected and cells were washed with ice-cold PBS and then immediately boiled for 2 min. A monitoring peptide (IVTL) and protease inhibitors were then added to the boiled samples, which were sonicated for 5 s three times and centrifuged at 100,000 × g for 1 h. The resultant supernatants were precipitated with TCA on ice for 15 min, centrifuged at 100,000 × g for 1 h, and filtered before being subjected to LC-MS/MS analysis to measure the tri-, tetra-, and pentapeptides as described elsewhere.

γ-secretase [4] = experiment: Acute oral treatment of wild-type mice, brain Aβ peptides; format: in vivo, mouse
Description: For in vivo assessment of compound efficacy, brain tissue and cerebrospinal fluid (CSF) were collected, snap frozen in liquid nitrogen, and stored at −80 °C. Brain hemispheres were homogenized in 0.6 % diethylamine (DEA) in 50 mM NaCl containing protease inhibitor cocktail (cOmplete mini, EDTA-free, Roche) using sonication (Branson) at 23 % amplitude for 30 s. Homogenates were spun at 227,000 × g for 25 min at 4 °C. Supernatants were diluted fivefold in PBS-T (0.05 % Tween-20) containing 0.67 % BSA and added to the ELISA plate. For CSF, samples were diluted threefold in the PBS-T/BSA buffer. Detection was performed using the SuperSignal™ ELISA Femto substrate (Thermo Fisher), and luminescence was read on an EnVision plate reader (Perkin Elmer).
Mice and rats were maintained on 12/12 h light/dark cycle with food available ad libitum. Drug treatment was prepared in a vehicle of 1 % carboxymethylcellulose (CMC):Tween80 (99.5:0.5). Twelve-week-old wild-type male mice (129S6, Taconic Biosciences, Hudson, NY, USA) or rats (Wistar, Charles River Laboratories) were administered compound p.o. without prior fasting and euthanized by CO2 asphyxiation at specified times post-dosing. After extraction of the brain, the olfactory bulb and hindbrain were removed and the cerebral hemispheres separated (mice) or cut in 4 pieces (rats). The cerebellum was removed for bioanalysis of the compound. CSF was collected from the cisterna magna and blood from a cardiac puncture.

[5] = WT mice, single oral dose 30 mg/kg, 6 h post-treatment
[6] = mice, time course 0.5-24 h, 30 mg/kg p.o.
[7] = mice, time course, 30 mg/kg p.o.

Compound: COc1nc(C2=NOC[C@H](c3cc4ccccc4o3)N2)ccc1-n1cnc(C)c1 [FRM-36143, (R)-5-(benzofuran-2-yl)-3-(6-methoxy-5-(4-methyl-1H-imidazol-1-yl)pyridin-2-yl)-5,6-dihydro-4H-1,2,4-oxadiazine]
- EC50 (γ-secretase [1]; H4 APP751 cells, overnight, ELISA, read-out: EC50 for Aβ37): 186 nM
- EC50 (γ-secretase [1]; H4 APP751 cells, overnight, ELISA, read-out: EC50 for Aβ38): 38 nM
- EC50 (γ-secretase [1]; H4 APP751 cells, overnight, ELISA, read-out: EC50 for Aβ40): 167 nM
- EC50 (γ-secretase [1]; H4 cells expressing human WT APP751, overnight treatment, ELISA of conditioned media, read-out: EC50 for Aβ42): 35 nM
- EC90 (γ-secretase [1]; assay not stated, compared with unbound brain concentration): 383 nM
- EC50 (γ-secretase [1]; range over H4 cells and primary neurons, read-out: EC50 to reduce Aβ42 levels in cells): 35 to 53 nM
- EC50 (γ-secretase [2]): 53 nM
- Aβ42 concentration in the media (γ-secretase [3]; 2 h, DMSO 154 ± 2): 105 ± 2 pM
- Aβ38 concentration in the media (γ-secretase [3]; 2 h, DMSO 750 ± 62): 1548 ± 39 pM
- Aβ40 concentration in the media (γ-secretase [3]; 2 h, DMSO 4021 ± 132): 3477 ± 120 pM
- Aβtotal concentration in the media (Aβ38 + Aβ40 + Aβ42) (γ-secretase [3]; 2 h, DMSO 4925 ± 185): 5130 ± 92 pM
- Intracellular production of small peptides VVIA and VVIAT (fourth cleavage step) (γ-secretase [3]; LC-MS/MS): increases the production of VVIA and VVIAT
- Brain Aβ37 increase vs vehicle (γ-secretase [4]; [5]): 3.2 fold
- Brain Aβ42 reduction vs vehicle (γ-secretase [4]; [5]): 43%
- Calculated AUC0→24h of brain Aβ40 reduction (γ-secretase [4]; mice, 30 mg/kg p.o.): 31%
- Calculated AUC0→24h of brain Aβ42 reduction (γ-secretase [4]; mice, 30 mg/kg p.o.): 34%
- Peak reduction of brain Aβ40 (γ-secretase [4]; [6]): 40%
- Peak reduction of brain Aβ42 (γ-secretase [4]; [6]): 45%
- Change of brain Aβ37 and Aβ38 (γ-secretase [4]; mice, time course, 10 mg/kg p.o.): induced an increase in Aβ37 and Aβ38
- Reduction of brain Aβ40 and Aβ42 (γ-secretase [4]; mice, time course, 10 mg/kg p.o., 10 mg/kg): did not reduce Aβ40 and Aβ42 to a great extent; also recorded: did not observe any efficacy
- Peak increase of brain Aβ37 (γ-secretase [4]; [7]): 3.1 fold
- Peak increase of brain Aβ38 (γ-secretase [4]; [7]): 2 fold
